ChEMBL document CHEMBL4020711, “Synthesis and biological evaluation of neoglycosphingolipids” (Eur J Med Chem, 2017)
The source made the active and inactive calls. The rule behind the calls is not given here.

Tested on: B16
Experiment: Suppression of MMP-9 mRNA expression in mouse B16 cells at 1 uM after 24 hrs by qRT-PCR analysis
Assay type: functional, cell-based

Compound | inhibition
CCCCCCCCCCCCCCCCCCOC(=O)CON(C)[C@@H]1O[C@H](CO)[C@@H](O)[C@H](O)[C@H]1O | inactive
CCCCCCCCCCCCCCCCCCOC(=O)[C@H](COC(=O)CON(C)[C@@H]1O[C@H](CO)[C@@H](O[C@@H]2O[C@H](CO)[C@@H](O[C@H]3O[C@H](CO)[C@@H](O)[C@H](O)[C@H]3O)[C@H](O)[C@H]2O)[C@H](O)[C@H]1O)NC(=O)CCCCCCCCCCCCCCCCC | inactive
CCCCCCCCCCCCCCCCCCOC(=O)[C@H](COC(=O)CON(C)[C@@H]1O[C@H](CO)[C@H](O)[C@H](O)[C@H]1O)NC(=O)CCCCCCCCCCCCCCCCC | inactive

Tested on: B16
Experiment: Upregulation of MMP-9 mRNA expression in mouse B16 cells at 25 uM after 24 hrs by qRT-PCR analysis
Assay type: functional, cell-based

Compound | Activity
CCCCCCCCCCCCCCCCCCOC(=O)CON(C)[C@@H]1O[C@H](CO)[C@H](O)[C@H](O)[C@H]1O | Active
CCCCCCCCCCCCCCCCCCOC(=O)[C@H](COC(=O)CON(C)[C@@H]1O[C@H](CO)[C@@H](O)[C@H](O)[C@H]1O)NC(=O)CCCCCCCCCCCCCCCCC | Active
CCCCCCCCCCCCCCCCCCOC(=O)CON(C)[C@@H]1O[C@H](CO)[C@@H](O[C@@H]2O[C@H](CO)[C@@H](O[C@H]3O[C@H](CO)[C@@H](O)[C@H](O)[C@H]3O)[C@H](O)[C@H]2O)[C@H](O)[C@H]1O | Active
CCCCCCCCCCCCCCCCCCOC(=O)[C@H](COC(=O)CON(C)[C@@H]1O[C@H](CO)[C@@H](O[C@@H]2O[C@H](CO)[C@H](O)[C@H](O[C@]3(C(=O)O)C[C@H](O)[C@@H](NC(C)=O)[C@H]([C@H](O)[C@H](O)CO)O3)[C@H]2O)[C@H](O)[C@H]1O)NC(=O)CCCCCCCCCCCCCCCCC | Active
CCCCCCCCCCCCC/C=C/[C@H](O)[C@@H](CO[C@@H]1O[C@H](CO)[C@@H](O[C@@H]2O[C@H](CO)[C@H](O)[C@H](O[C@]3(C(=O)O)C[C@H](O)[C@@H](NC(C)=O)[C@H]([C@H](O)[C@H](O)CO)O3)[C@H]2O)[C@H](O)[C@H]1O)NC(=O)CCCCCCCCCCCCCCCCC | Active
CCCCCCCCCCCCCCCCCCOC(=O)[C@H](COC(=O)CON(C)[C@@H]1O[C@H](CO)[C@@H](O[C@@H]2O[C@H](CO)[C@H](O)[C@H](O)[C@H]2O)[C@H](O)[C@H]1O)NC(=O)CCCCCCCCCCCCCCCCC | Active
CCCCCCCCCCCCCCCCCCOC(=O)CON(C)[C@@H]1O[C@H](CO)[C@@H](O[C@@H]2O[C@H](CO)[C@H](O)[C@H](O)[C@H]2O)[C@H](O)[C@H]1O | Active

Tested on: B16
Experiment: Upregulation of MMP-9 mRNA expression in mouse B16 cells at 1 uM after 24 hrs by qRT-PCR analysis
Assay type: functional, cell-based

Compound | Activity
CCCCCCCCCCCCCCCCCCOC(=O)CON(C)[C@@H]1O[C@H](CO)[C@@H](O[C@@H]2O[C@H](CO)[C@H](O)[C@H](O[C@]3(C(=O)O)C[C@H](O)[C@@H](NC(C)=O)[C@H]([C@H](O)[C@H](O)CO)O3)[C@H]2O)[C@H](O)[C@H]1O | Active
